# Results as given in paper PMC11943723, “Synthesis and Biological Activity of Glycosyl Thiazolyl Disulfides Based on Thiacarpine, an Analogue of the Cytotoxic Alkaloid Polycarpine from the Ascidian Polycarpa aurata” (Marine Drugs, 2025).
# Where two headings read alike, the source gives them in different places.
# Legend:
# [1] = MTT cell viability assay, BEAS-2B normal cells; type: cell-based; conditions: human, BEAS-2B normal bronchial epithelial cells, 24 h incubation, read-out: Cytotoxicity EC50, BEAS 2B
# Source text: (§1) Human erythrocytes were purchased from the blood transfusion station Vladivostok. Human breast cancer cell lines MCF-7^HTB−22, and MDA-MB-231^CRM-HTB−26, liver hepatocellular carcinoma Hep G2^HB−8065, prostate adenocarcinoma PC-3^CRL−1435, cervical adenocarcinoma HeLa^CRM-CCL−2, and normal bronchial epithelial cells BEAS-2B ^CRL−3588 were received from ATCC (Manassas, VA, USA).
# (§2) DMEM medium (Biolot, Russia) with 1% penicillin/streptomycin and 10% fetal bovine serum (FBS) (Biolot, Russia) was used for cultivation of Hep G2, PC-3, HeLa, and Beas-2b. MEM medium (Biolot, Russia) with 1% penicillin/streptomycin sulfate (Biolot, Russia) and FBS (Biolot, Russia) to a final concentration of 10% for MCF-7 and MDA-MB-231 cells.
# (§3) The effect of the studied compounds on the viability of human cancer and normal cells was determined using the MTT (3-[4,5-dimethylthiazol-2-yl]-2,5 diphenyl tetrazolium bromide) assay. Briefly, 6 × 10^3 cells per well were seeded into 96-well plates and incubated for 24 h for adhesion, followed by incubation for 24 h with different concentrations of the substances. After incubation, the medium containing the test substances was replaced with 100 µL of fresh medium. Then, 10 μL of MTT (Sigma-Aldrich, Madison, WI, USA) reagent (5 mg/mL MTT in PBS) was added into the cells and the plates for additional 4 h. Thereafter, 100 µL of SDS-HCl solution (1 g SDS/10 mL dH2O/17 µL 6N HCl) was added to each well and incubated for 18 h. The absorbance of the converted formazan dye was measured using a Multiskan FC microplate photometer (Thermo Scientific, Waltham, MA, USA) at a wavelength of 570 nm. All experiments were performed in triplicate. Cytotoxic activity was expressed as a percentage of the cell viability.
# [2] = system: HeLa cells; assay: Wound scratch migration assay; type: cell-based; conditions: Homo sapiens, 24 h, read-out: Migration inhibition effect
# Method: To analyze the effect of the tested compounds on the migration of HeLa tumor cells, special migration inserts (Culture-insert 2 Well 24, ibiTreat, Martinsried, Germany) were used, which left a gap of 500 ± 50 μm (according to the manufacturer’s data) between the cells attached to the plate. HeLa cells at a concentration of 5 × 10^5 were added to each well of the migration insert for 24 h, the insert was removed, and the cells were washed twice with PBS to remove cell debris and floating cells and loaded with the fluorescent probe CFDA-SE (Lumiprobe, Moscow, Russia) at a concentration of 10 µM for 5 min. The cells were treated with different concentrations of the studied compounds for 0 and 24 h. Cells treated with culture medium alone were used as vehicle controls. Cell migration in the wound area was observed under a fluorescence microscope (MIB-2-FL, LOMO, St. Petersburg, Russia) with a 10× objective.
# [3] = system: Hep G2 (hepatocellular carcinoma); assay: MTT cell viability assay, Hep G2; type: cell-based; conditions: Homo sapiens, HepG2, 24 h incubation, read-out: Cytotoxicity EC50, Hep G2
# Source text: as §1, §2, §3
# [4] = system: Candida albicans (KMM 455); assay: Inhibition of biofilm formation (MTT); type: cell-based; conditions: 24 h
# Method: (§4) Biofilm formation was performed according to the method described by Walencka et al., with minor modifications. The compounds were dissolved in dimethyl sulfoxide (DMSO) at a concentration of 10 mM and stored at −20 °C. Before the experiment, the solution of substances in DMSO was diluted with PBS at a concentration of 0.5–100.0 µM and added to the wells so that the concentration of DMSO in the culture medium was less than 1%. Biofilm formation was assessed in 96-well microplates in a liquid Mueller–Hinton nutrient medium. For S. aureus, E. coli, and C. albicans, a bacterial suspension of 10^6 CFU in 1 mL of medium was used, 90 μL was added to each well of the microplates and then incubated in a thermostatted shaker at 37 °C for 24 h. After incubation, the suspension of planktonic microorganisms was removed from the plate and washed with PBS. Next, 100 μL of PBS and 10 μL of MTT (3-(4,5-dimethylthiazol-2-yl)-2,5-diphenyltetrazolium bromide, MTT reagent, Sigma) stock solution (5 mg/mL) were added to the wells and incubated for 3 h at 37 °C. After incubation, all the solution was removed from the wells, 100 μL of DMSO was added, and the plate was shaken for 10 min until all formazan crystals had dissolved. The absorption was measured using a plate reader (Thermo Fisher Scientific, Waltham, MA, USA) at a wavelength of 570 nm. The activity of the substances was assessed by the change in optical density compared with that of the control. All experiments were performed in triplicate. Gentamicin (S. aureus and E. coli) and nitrofungin (C. albicans) were used as positive controls, and 1% DMSO in PBS was used as a negative control.
# [5] = system: Staphylococcus aureus (ATCC 21027); assay: Inhibition of biofilm formation (MTT); type: cell-based; conditions: 24 h
# Method: as §4
# [6] = system: MDA-MB-231 (triple-negative breast cancer); assay: MTT cell viability assay, MDA-MB-231; type: cell-based, human; conditions: 24 h incubation, read-out: Cytotoxicity EC50, MDA-MB-231 (TNBC)
# Source text: as §1, §2, §3
# [7] = system: Candida albicans (KMM 455); assay: Antimicrobial activity, inhibition of microbial growth (optical density); type: cell-based; conditions: Candida albicans, KMM455; 18 h, OD 620 nm; read-out: Inhibition of Microbial Growth MIC50, C. albicans
# Method: (§5) The antimicrobial activity of the compounds was determined against Gram-positive bacteria Staphylococcus aureus (ATCC 21027), Gram-negative bacteria Escherichia coli (VKPM B-7935), and yeast-like fungi Candida albicans (KMM 455) (all test strains were obtained from the Collection of Marine Microorganisms KMM PIBOC FEB RAS) in liquid nutrient media. Test cultures of S. aureus, E. coli, and C. albicans were grown in Petri dishes on a solid nutrient medium (Mueller–Hinton broth with the addition of agar—16.0 g/L) at 37 °C for 24 h. The antimicrobial activity of the compounds was determined by the change in optical density and expressed as the percentage of bacterial inhibition at different concentrations of substances added to the well of the microorganism suspension, compared to the control. The compounds were dissolved in dimethyl sulfoxide (DMSO) at a concentration of 10 mM and stored at −20 °C. Before the experiment, the solution of substances in DMSO was diluted with PBS at a concentration of 0.5–100.0 µM and added to the wells so that the concentration of DMSO in the culture medium was less than 1%. Antimicrobial activity was determined in 96-well microplates in a liquid Mueller–Hinton nutrient medium. For S. aureus, E. coli, and C. albicans, a bacterial suspension of 10^6 CFU in 1 mL of the media was used, 90 μL was added to each well of the microplates and then incubated in a thermostatted shaker at 37 °C for 18 h. Inhibition of microorganism growth was assessed by measuring the optical density at 620 nm using a microplate reader (Thermo Fisher Scientific, Waltham, MA, USA) after preliminary shaking of the plates for 10 min. All experiments were performed in triplicate. Gentamicin (S. aureus and E. coli) and nitrofungin (C. albicans) were used as positive controls, and 1% DMSO in PBS was used as a negative control.
# [8] = system: Staphylococcus aureus (ATCC 21027); assay: as above; type: cell-based; conditions: Staphylococcus aureus, ATCC21027; 18 h, OD 620 nm; read-out: Inhibition of Microbial Growth MIC50, S. aureus
# Method: as §5
# [9] = system: Escherichia coli (VKPM B-7935); assay: as above; type: cell-based; conditions: Escherichia coli; 18 h, OD 620 nm; read-out: Inhibition of Microbial Growth MIC50, E. coli
# Method: as §5
# [10] = system: Human erythrocytes; assay: Hemolytic activity (destruction of erythrocyte membranes); type: cell-based
# Source text: as §1
# [11] = system: HeLa (cervical cancer); assay: MTT cell viability assay, HeLa; type: cell-based, human; conditions: 24 h incubation, read-out: Cytotoxicity EC50, HeLa
# Source text: as §1, §2, §3
# [12] = in vivo experiments; cited from earlier work
# [13] = system: melanoma B-16; conditions: injected intraperitoneally; cited from earlier work
# [14] = system: LLC; conditions: injected intraperitoneally; cited from earlier work
"Inhibition of Biofilm Formation MIC50, C. albicans [4] [µM]","Inhibition of Biofilm Formation MIC50, S. aureus [5] [µM]",MIC50 [7] [µM],MIC50 [8] [µM],MIC50 [9] [µM],SMILES,EC50 at 24 h [1] [µM],inhibition at 10 µM [2] [%],EC50 [3] [µM],"EC50 ([6]; Homo sapiens, MDA-MB-231, 24 h) [µM]","Hemolytic activity, erythrocytes [10] [µM]","EC50 ([11]; Homo sapiens, HeLa, 24 h) [µM]",EC50 [6] [µM],EC50 [11] [µM],Acute toxicity in vivo [12],Inhibition of development of solid tumor melanoma B-16 [13],Inhibition of development of solid tumor LLC [14]
7.11,6.32,4.3 ± 0.5,2.4 ± 0.2,5.8 ± 0.4,"CC(=O)O[C@@H]1[C@@H](OC(C)=O)[C@H](SSc2sc(N)nc2-c2ccc(Br)cc2)OC[C@H]1OC(C)=O [Compound 4h, 5-[(2,3,4-Tri-O-acetyl-β-D-xylopyranosyl)disulfanyl]-2-amino-4-(4-bromophenyl)thiazole]",19.9,~43,24.6,21.1,> 25,21.3,,,,,
,,17.7 ± 0.3,> 50,> 50,"CC(=O)OC[C@H]1O[C@@H](SSc2sc(N)nc2-c2ccc(C)cc2)[C@H](OC(C)=O)[C@@H](OC(C)=O)[C@@H]1OC(C)=O [Compound 4e, 5-[(2,3,4,6-Tetra-O-acetyl-β-D-glucopyranosyl)disulfanyl]-2-amino-4-(p-tolyl)thiazole]",> 25,~43,> 25,15,,18.5,15,18.5,,,
,,,,,COc1ccc(-c2nc(N)n(C)c2SSc2c(-c3ccc(OC)cc3)nc(N)n2C)cc1 [polycarpine],,,,,,,,,acute toxicity,,
,,38.2 ± 3.2,10.3 ± 1.1,> 50,COc1ccc(-c2nc(N)sc2SSc2sc(N)nc2-c2ccc(OC)cc2)cc1 [Compound 1a],> 25,,> 25,21.4,,> 25,,,,effectively inhibited,effectively inhibited
